Results taken from US8143374B2, “Polypeptide derivatives of parathyroid hormone (PTH)” (The General Hospital Corporation, priority 2006, dated 2012).
Entries after “also recorded” stand apart in the source; their conditions may differ. Read-outs that look alike come from different tables or passages of the source. Where no end group is shown, it is not given here.

Tests used:
[1] = Circular dichroism spectroscopy, helical residues per peptide chain; type: physicochemical; conditions: calculated from [θ]222
Summary of the method: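 Helical residue count per peptide chain derived from 222 nm mean residue ellipticity via −[θ]222×30/28,000. Spectra taken at 20 °C as four-scan averages, with concentrations verified by absorbance at 280 nm (single tryptophan, 5700 M^−1).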

wild-type human PTHR = target: T1, wild-type human PTHR (Homo sapiens, UniProt Q03431); test: Competition binding in intact HKRK-B7 cells with 125I-PTH(1-34) tracer; conditions: for reduction (alteration) of apparent binding affinity for the intact PTHR relative to parent peptide / detectable binding to the intact PTHR (in words) / enhancement in apparent PTHR-binding affinity relative to parent peptide: HKRK-B7 cells; for reduction (alteration) of apparent binding affinity for the intact PTHR relative to parent peptide: versus the respective parent peptide; for IC50: intact HKRK-B7 cells, read-out: PTHR-WT (HKRK-B7 cells) IC50; for enhancement in apparent PTHR-binding affinity relative to parent peptide: versus PTH(1-31)NH2
T1 construct: expressed in transfected cells
T1 sequence (Q03431 27-593): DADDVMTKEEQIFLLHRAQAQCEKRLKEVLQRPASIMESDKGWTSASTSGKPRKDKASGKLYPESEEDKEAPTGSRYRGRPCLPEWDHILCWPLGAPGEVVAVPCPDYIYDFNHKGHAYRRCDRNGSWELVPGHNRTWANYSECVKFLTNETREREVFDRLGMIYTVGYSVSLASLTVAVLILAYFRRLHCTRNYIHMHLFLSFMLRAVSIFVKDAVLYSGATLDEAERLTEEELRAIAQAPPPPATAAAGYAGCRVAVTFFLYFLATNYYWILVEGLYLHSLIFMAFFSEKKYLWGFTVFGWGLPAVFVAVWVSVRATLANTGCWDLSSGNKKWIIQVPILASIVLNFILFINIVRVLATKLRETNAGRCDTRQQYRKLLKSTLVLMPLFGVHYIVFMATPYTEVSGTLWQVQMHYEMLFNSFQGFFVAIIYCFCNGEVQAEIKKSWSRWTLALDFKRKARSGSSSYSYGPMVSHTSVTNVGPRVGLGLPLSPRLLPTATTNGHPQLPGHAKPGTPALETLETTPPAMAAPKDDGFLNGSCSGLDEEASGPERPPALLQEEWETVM
Experimental: Cell Culture—Cells were cultured at 37° C. in a humidified atmosphere containing 5% CO2 in Dulbecco's modified Eagle's medium (DMEM), supplemented with 10% fetal bovine serum (HyClone, Logan Utah), 100 units/ml penicillin G, and 100 ug/ml streptomycin penicillin G/streptomycin (Invitrogen Corp. Carlsbad, Calif.). For binding and cAMP studies performed with the intact PTHR, the HKRK-B7 and ROS 17/2.8 cell lines were used. HKRK-B7 cells are derived from the porcine kidney cell line LLC-PK1 and express, via stable DNA transfection, the wild-type human PTHR at an approximate surface density of 950,000 PTH-binding sites per cell. ROS 17/2.8 cells are rat osteosarcoma cells and express the endogenous PTHR at an approximate surface density of 80,000 PTH-binding sites per cell. The cells were plated and assayed in 24-well plates.
Receptor binding—Binding to the wild-type human PTHR in intact HKRK-B7 cells and ROS 17/2.8 cells was assessed using ^125I-PTH(1-34) as a tracer radioligand, as described (Shimizu, M., (2001) Endocrinology 142:3068-3074). In brief, the cells in 24-well plates (about 500,000 cells per well) were incubated in binding buffer containing radioligand (about 100,000 cpm per well) with or without unlabeled peptide ligand (3×10^−9 to 1×10^−5 M) for four hours at 15° C. The binding mixture was then removed by aspiration, the cells were rinsed three times with binding buffer, lysed in 1 M NaOH, and the entire lysate was counted for gamma-irradiation in a gamma counter. Binding to PTHR-delNt in COS-7 cell membranes was assessed in 96-well, vacuum filtration plates (Multiscreen-Durapore HV, […] membranes, Millipore Corp., Millford, Mass.) using ^125I-[Aib^1,3,M]PTH(1-15)NH2 as a tracer radioligand, as described (Dean, T., (2006) Mol Endocrinol 20:931-942). In brief, cell membranes (20 μg/well) were incubated in membrane binding buffer containing radioligand (30,000 cpm/well) with or without unlabeled peptide ligand (3×10^−9 to 1×10^−5 M) for 90 minutes at 21° C. The plates were then subject to rapid vacuum filtration, the filters were washed once with buffer, detached from the plate and counted for gamma-irradiation in a gamma counter. Non-specific binding was defined as the binding observed in the presence of 1×10^−6 M PTH(1-31)NH2 for HKRK-B7 and ROS 17/2.8 cells, and 1×10^−6 M [Aib^1,3,M]PTH(1-15)NH2 for PTHR-delNt. Specifically bound radioactivity was calculated as a percentage of the radioactivity specifically bound in the absence of competing ligand.
Data and statistical calculations—Data were processed for curve fitting and derivation of IC50 and EC50 values using least-squares, nonlinear regression analysis and the four parameter logistic equation: […], where y, ymin and ymax are the observed, minimum and maximum response values, respectively; x is ligand concentration, and n is the slope factor. In cases where incomplete inhibition of binding occurred: i.e. with certain PTH(1-31) analogs binding to PTHR-delNt, the curve fits and IC50 values were derived by extrapolating the data to the maximum inhibition attained by [Aib^1,3,M]PTH(1-15)NH2. Paired data sets were statistically compared using a two-tailed Student's t-test, assuming unequal variances for the two sets.

[2] = [Ala1,Arg19]hPTH(1-31)NH2 analogs
[3] = hPTH(1-31)NH2 analogs, 125I-[Nle8,21,Tyr34]ratPTH(1-34)NH2 tracer

Question: With “SVSEIQLMHNLGKHLNSMERVEWARKKLQDV-NH2 [Leu^24→Ala]” as the substance, how does the CD helical residues ([1]; hPTH(1-31)NH2 analogs) read?
Answer: 7

Question: What about the “reduction (alteration) of apparent binding affinity for the intact PTHR relative to parent peptide” value (wild-type human PTHR) of the same substance?
Answer: 12 fold

Question: Which CD helical residues ([1]; hPTH(1-31)NH2 analogs) does the source give for “SVSEIQLMHNLGKHLNSMERVEWLRKKLQDA-NH2 [Val^31→Ala]” here?
Answer: 9

Question: And the “reduction (alteration) of apparent binding affinity for the intact PTHR relative to parent peptide” value (wild-type human PTHR)?
Answer: three- to four-fold

Question: With “AVSEIQLMHNLGKHLNSMRRVEWLRKELQDV-NH2 [Lys^27→Glu]” as the substance, how does the CD helical residues [1, 2] read?
Answer: 5

Question: And the “reduction (alteration) of apparent binding affinity for the intact PTHR relative to parent peptide” value (wild-type human PTHR)?
Answer: two- to five-fold reductions

Question: Which results are given for “SVSEIQLMHNLGKHLNSMEEVEWLRKKLQDV [Arg^20→Glu]”?
Answer: CD helical residues [1, 2]: 8; CD helical residues ([1]; hPTH(1-31)NH2 analogs): 7; detectable binding to the intact PTHR (in words) (wild-type human PTHR): abolished detectable binding; also recorded: complete loss of detectable binding affinity

Question: Which CD helical residues ([1]; hPTH(1-31)NH2 analogs) does the source give for “SVSEIQLMHNLGKHLNSMERVEWLRKKAQDV-NH2 [Leu^28→Ala]” here?
Answer: 8

Question: What about the “reduction (alteration) of apparent binding affinity for the intact PTHR relative to parent peptide” value (wild-type human PTHR) of the same substance?
Answer: three- to four-fold

Question: For “SVSEIQLMHNLGKHLNSMEAVEWLRKKLQDV-NH2 [Arg^20→Ala]”, which CD helical residues ([1]; hPTH(1-31)NH2 analogs) is on record?
Answer: 10

Question: What about the “detectable binding to the intact PTHR (in words)” value (wild-type human PTHR) of the same substance?
Answer: abolished detectable binding altogether; also recorded: abolished binding to the PTHR

Question: And the IC50 (wild-type human PTHR; [3])?
Answer: > 10000 nM

Question: For “SVSEIQLMHNLGKHLNSMARVEWLRKKLQDV-NH2 [Glu^19→Ala]”, which CD helical residues ([1]; hPTH(1-31)NH2 analogs) is on record?
Answer: 9

Question: And the “enhancement in apparent PTHR-binding affinity relative to parent peptide” value (wild-type human PTHR)?
Answer: ≦two-fold

Question: And the IC50 (wild-type human PTHR; [3])?
Answer: 49 ± 11 nM

Question: Which CD helical residues ([1]; hPTH(1-31)NH2 analogs) does the source give for “SVSEIQLMHNLGKHLNSMERVEWLAKKLQDV-NH2 [Arg^25→Ala]” here?
Answer: 7

Question: And the “reduction (alteration) of apparent binding affinity for the intact PTHR relative to parent peptide” value (wild-type human PTHR)?
Answer: three- to four-fold

Question: For “SVSEIQLMHNLGKHLNSMARVAWLRKKLQDV-NH2 [Glu^19,22→Ala,Ala]”, which CD helical residues ([1]; hPTH(1-31)NH2 analogs) is on record?
Answer: 9

Question: What about the “enhancement in apparent PTHR-binding affinity relative to parent peptide” value (wild-type human PTHR) of the same substance?
Answer: did not lead to further improvements

Question: What about the IC50 (wild-type human PTHR; [3]) of the same substance?
Answer: 49 ± 9 nM

Question: What does the source list for “SVSEIQLMHNLGKHLNSMERVEWLRKKLADV-NH2 [Gln^29→Ala]”?
Answer: CD helical residues ([1]; hPTH(1-31)NH2 analogs): 9; enhancement in apparent PTHR-binding affinity relative to parent peptide (wild-type human PTHR): ≦two-fold

Question: Which CD helical residues [1, 2] does the source give for “AVSEIQLMHNLGKHLNSMRREEWLRKKLQDV-NH2 [Val^21→Glu]” here?
Answer: 7

Question: And the “reduction (alteration) of apparent binding affinity for the intact PTHR relative to parent peptide” value (wild-type human PTHR)?
Answer: 12 fold

Question: Which CD helical residues ([1]; hPTH(1-31)NH2 analogs) does the source give for “SVSEIQLMHNLGKHLNSMERAEWLRKKLQDV-NH2 [Val^21→Ala]” here?
Answer: 10

Question: And the “reduction (alteration) of apparent binding affinity for the intact PTHR relative to parent peptide” value (wild-type human PTHR)?
Answer: three- to four-fold

Question: With “AVSEIQLMHNLGKHLNSMRRVEWLEKKLQDV-NH2 [Arg^25→Glu]” as the substance, how does the CD helical residues [1, 2] read?
Answer: 5

Question: And the “reduction (alteration) of apparent binding affinity for the intact PTHR relative to parent peptide” value (wild-type human PTHR)?
Answer: two- to five-fold reductions

Question: For “AVSEIQLMHNLGKHLNSMERVEWLRKKLQDV-NH2 [Arg^19→Glu]”, which CD helical residues [1, 2] is on record?
Answer: 9

Question: What about the “reduction (alteration) of apparent binding affinity for the intact PTHR relative to parent peptide” value (wild-type human PTHR) of the same substance?
Answer: two- to five-fold reductions

Question: And the IC50 (wild-type human PTHR; [Ala1,Arg19]hPTH(1-31)NH2 analogs, 125I-[Nle8,21,Tyr34]rPTH(1-34)NH2 tracer)?
Answer: 125 ± 29 nM

Question: Which results are given for “SVSEIQLMHNLGKHLNSMERVEWLRAKLQDV-NH2 [Lys^26→Ala]”?
Answer: CD helical residues ([1]; hPTH(1-31)NH2 analogs): 7; IC50 (wild-type human PTHR; [3]): 125 ± 8 nM

Question: For “SVSEIQLMHNLGKHLNSMERVEALRKKLQDV-NH2 [Trp^23→Ala]”, which CD helical residues ([1]; hPTH(1-31)NH2 analogs) is on record?
Answer: 7

Question: And the “reduction (alteration) of apparent binding affinity for the intact PTHR relative to parent peptide” value (wild-type human PTHR)?
Answer: 19 fold

Question: For “SVSEIQLMHNLGKHLNSMERVEWLRKALQDV-NH2 [Lys^27→Ala]”, which CD helical residues ([1]; hPTH(1-31)NH2 analogs) is on record?
Answer: 9

Question: What about the “reduction (alteration) of apparent binding affinity for the intact PTHR relative to parent peptide” value (wild-type human PTHR) of the same substance?
Answer: three- to four-fold
